Experimental data taken from US12383526B2, “Optimized sigma-1 agonist method of responder selection and treatment” (ANAVEX LIFE SCIENCES CORP., priority 2018, dated 2025).

Assays:
[1] = tested on: cholinergic muscarinic receptors; conditions: mice; cited from earlier work
[2] = Plasma concentrations of ANAVEX2-73 and its metabolite ANAVEX19-144 in the 57-week study; assay type: in vivo, human; conditions: for Mean Concentration ANAVEX2-73, Max / Mean Concentration ANAVEX2-73, Mean / Mean Concentration ANAVEX2-73, Min: plasma
Method: A pharmacokinetics analysis was performed during Part A only. Blood samples were drawn at 12 and 11 time points after the first oral or IV administration during the first and second periods of Part A, respectively. Pharmacokinetic parameters included in the analysis consisted of maximum plasma drug concentration (C max), time to maximum plasma concentration during a dosing interval (t max), area under the curve from the time of dosing to the last measurable concentration (AUC0-t), mean elimination half-life (t ½), and the total body clearance for extravascular administration divided by the fraction of dose absorbed (CL/F).
Steady-state plasma levels of ANAVEX2-73 and its metabolite ANAVEX19-144 were assessed in Part B through blood samples collection at pre-specified time points (Weeks 12, 26, 36 and 48). Mean concentration values in ng/mL of each patient were then averaged. Table 14 illustrates mean plasma concentrations of ANAVEX2-73 and its metabolite ANAVEX19-144 during the 57-week study study.

In the case of `CN(C)CC1CCOC1(c1ccccc1)c1ccccc1.Cl` (centres unmarked) [ANAVEX2-73, tetrahydro-N,N-dimethyl-2,2-diphenyl-3-furanmethanamine hydrochloride], the “modulation of cholinergic muscarinic receptors” value [1] is given as “modulate cholinergic muscarinic receptors”, the “plasma concentration versus dose in the present study” value ([2]; 57-week study Part A, FIG. 2B) is given as “dose-dependent increase” and the “Mean Concentration ANAVEX2-73, Max” value ([2]; Part A1 (Day 1-2)) is given as 15.9 ng/mL. For the same molecule, the “Mean Concentration ANAVEX2-73, Mean” value ([2]; Part A1 (Day 1-2)) was 5.25 ng/mL, the “Mean Concentration ANAVEX2-73, Min” value ([2]; Part A1 (Day 1-2: within 2 days of first oral dose), N = 32 patients) was 0.84 ng/mL and the “Mean Concentration ANAVEX2-73, Max” value ([2]; Part A2 (Day 3-12)) was 8.44 ng/mL. For the same molecule, the “Mean Concentration ANAVEX2-73, Mean” value ([2]; Part A2 (Day 3-12)) was 2.11 ng/mL, the “Mean Concentration ANAVEX2-73, Min” value ([2]; Part A2 (Day 3-12)) was 0.03 ng/mL and the “Mean Concentration ANAVEX2-73, Max” value ([2]; Part B (Week 5 to Week 57)) was 11.58 ng/mL. The “Mean Concentration ANAVEX2-73, Mean” value ([2]; Part B (Week 5 to Week 57)) was 3.8 ng/mL and the “Mean Concentration ANAVEX2-73, Min” value ([2]; Part B (Week 5 to Week 57)) was 0 ng/mL.
